# Values of other authors in patent publication US20140171436A1, “TREATMENT OF ANTIFOLATE NEUROTOXICITY” (Syntrix Biosystems, Inc., priority 2003, published 2014).
# Several values for one entry are separate records, joined by “and”; a condition that tells them apart may be missing. Equal entries are not always repeated. Where two headings read alike, the source gives them in different places.
# What was measured:
# [1] = molecular target: sigma-1 receptor (Homo sapiens, UniProt Q99720); conditions: cited from earlier work
# sigma-1 receptor, sequence (Q99720 whole entry, species assumed): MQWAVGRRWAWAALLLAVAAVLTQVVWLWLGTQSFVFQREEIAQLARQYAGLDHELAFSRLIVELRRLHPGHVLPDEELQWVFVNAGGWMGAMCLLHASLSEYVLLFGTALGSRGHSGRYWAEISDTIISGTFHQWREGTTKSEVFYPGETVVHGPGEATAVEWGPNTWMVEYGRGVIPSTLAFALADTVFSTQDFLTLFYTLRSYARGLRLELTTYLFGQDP
# [2] = in words; 'No' = none known; cited from earlier work
# [3] = molecular target: NMDA receptor; conditions: read-out: Ki NMDAR; cited from earlier work
# [4] = molecular target: sigma-2 (Homo sapiens, UniProt Q5BJF2); conditions: read-out: Ki sigma-2; cited from earlier work
# sigma-2, sequence (Q5BJF2 whole entry): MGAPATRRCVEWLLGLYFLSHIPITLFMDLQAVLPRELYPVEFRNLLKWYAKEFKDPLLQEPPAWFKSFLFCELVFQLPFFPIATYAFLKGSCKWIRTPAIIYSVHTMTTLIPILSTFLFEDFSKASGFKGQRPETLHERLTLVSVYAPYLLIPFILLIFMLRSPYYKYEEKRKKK
# [5] = molecular target: sigma-1 (Cavia porcellus, UniProt Q60492); conditions: Table IV, reference 8; read-out: sigma-1 affinity IC50; cited from earlier work
# sigma-1, sequence (Q60492 whole entry): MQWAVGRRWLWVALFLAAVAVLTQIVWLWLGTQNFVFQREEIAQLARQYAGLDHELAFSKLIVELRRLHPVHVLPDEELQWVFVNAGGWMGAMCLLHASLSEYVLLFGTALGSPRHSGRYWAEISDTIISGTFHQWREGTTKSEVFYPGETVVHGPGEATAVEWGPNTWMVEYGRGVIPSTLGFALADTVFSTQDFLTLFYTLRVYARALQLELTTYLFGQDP
# [6] = cited from earlier work
# [7] = frequent and massive doses as large as 3300 mg/day; cited from earlier work
# [8] = Table III, sigma-1 antagonists, read-out: sigma-1 affinity
# [9] = Table IV, undefined agonist/antagonist activity, read-out: sigma-1 affinity
# [10] = Table II, sigma-1 agonists, read-out: sigma-1 affinity
# [11] = delayed syndrome, moderate dose
molecule,measurement,setting,value
1-(cyclopropylmethyl)-4-(2′-oxoethyl) piperidine HBr [Dup-734],Ki,[1]; [8],< 50 nM
same,Other known affinity,[2],No
2-[4-(4-methoxy-benzyl)piperazin-1-yl-methyl]4-oxo[4H]-benzo-thiazolin-2-one [S-21377],Ki,[1]; [9],< 50 nM
same,Other known affinity,[2],No
"C=CCN1CCC2(C)c3cc(O)ccc3CC1C2C (single isomer, unassigned; (+)) [(+)-N-allyl-normetazocine]",Ki,[1]; [10],< 50 nM
same,Ki,[1]; read-out: sigma-1 affinity Ki,58 nM
same,Ki,[3],600 nM
same,Ki,[4],14000 nM
"CC(C)=CCN1CCC2(C)c3cc(O)ccc3CC1C2C (single isomer, unassigned; (+)) [(+)-pentazocine]",Other known affinity,[2],No
"CCC(C/C=C/c1ccccc1)(c1ccccc1)N(C)CC1CC1 (single isomer, unassigned; (+)) [Igmesine, (+) N-cyclopropylmethyl-N-methyl-1,4-diphenyl-1-ethyl-butyl-2-N]",Ki,[1]; [10],< 50 nM
"CCCN1CCC[C@H](c2cccc(O)c2)C1 [(+)-3-PPP, R(+)-3-(3-hydroxyphenyl)-N-propylpiperidine]",Other known affinity,[2],Dopamine receptor
"C[C@H](Cc1ccccc1)NCCCc1ccccc1 [(−)-PPAP, R(−)-N-(3-phenyl-1-propyl)-1-phenyl-2-aminopropane]",Other known affinity,[2],NMDAR
"CN(CCc1ccc(Cl)c(Cl)c1)CCN1CCCC1 [BD-1008, N-[2-(3,4-dicholophenyl)ethyl]-N-methyl-2-(1-pyrrolidinyl)ethylamine]",Other known affinity,[2],sigma-2
"C=CCOc1ccc2c(c1)[C@@]13CCCC[C@H]1[C@@H](C2)N(C)CC3 [CPK-5, 3-allyloxy-17-methylmorphinan]",Ki,[1]; read-out: sigma-1 affinity Ki,156 nM
same,Ki,[3],18000 nM
same,Ki,[4],14000 nM
"CN1CC[C@]23CCCC[C@H]2[C@H]1Cc1ccc(OCC2CC2)cc13 [CPK-6, 3-cyclopropylmethoxy-17-methylmorphinan]",Ki,[1]; read-out: sigma-1 affinity Ki,148 nM
same,Ki,[3],18000 nM
same,Ki,[4],15000 nM
CCN(CC)CCOC(=O)C1(c2ccccc2)CCCC1 [Caramiphen],IC50,[5],25 nM
CCN(CC)CCOCCOC(=O)C1(c2ccccc2)CCCC1 [Carbetapentane],Ki,[1]; [9],< 50 nM
same,IC50,[5],9 nM
COC(=O)[C@H]1[C@@H](OC(=O)c2ccccc2)C[C@@H]2CC[C@H]1N2C [Cocaine],Ki,[1]; [10],500 to 10000 nM
"Cc1ccc2c(c1)[C@@]13CCCC[C@H]1[C@@H](C2)N(C)CC3 [Dimemorfan, (+)-3-methyl-N-methylmorphinan]",Ki,[1]; read-out: sigma-1 affinity Ki,151 nM
same,Ki,[3],17000 nM
same,Ki,[4],4000 to 11000 nM
CN(C)CCOCCOC(=O)N1c2ccccc2Sc2ccccc21 [Dimethoxanate],Ki,[1]; [9],< 50 nM
same,IC50,[5],41 nM
OC(CN1CCC(Cc2ccc(F)cc2)CC1)c1ccc(Cl)cc1 (centres unmarked) [Eliprodil],Ki,[1]; [9],< 50 nM
same,Other known affinity,[2],NMDAR polyamine site
CNCCC(Oc1ccc(C(F)(F)F)cc1)c1ccccc1 (centres unmarked) [Fluoxetine],Other known affinity,[2],SSRI
CN(C)CCCN1c2ccccc2CCc2ccccc21 [Imipramine],Ki,[1]; [10],50 to 500 nM
same,Other known affinity,[2],MAOI
"COCCN1CCN(C[C@H]2CCN(c3ccc(Cl)cc3)C2=O)CC1.O=C(O)C(O)C(O)C(=O)O [MS-377, (R)-(+)-1-(4-chlorophenyl)-3-[4-(2-methoxyethyl)piperazin-1-yl] methyl-2-pyrrolidinone L-tartrate]",Ki,[1]; [8],< 50 nM
same,Other known affinity,[2],No
"CN(Cc1cnc2nc(N)nc(N)c2n1)c1ccc(C(=O)N[C@@H](CCC(=O)O)C(=O)O)cc1 [MTX, Methotrexate]",Incidence,"[6]; acute syndrome, >1 g/m^2, IT",5-40%.
same,Incidence,"[6]; delayed (chronic) syndrome, low dose <10 mg/m^2 oral",Low - 56%.
same,Incidence,"[6]; delayed syndrome, high dose 7-20 g/m^2 every 1-2 weeks",High - 2.3%.
same,"Typical duration of symptoms, insidiously progressive","[6]; delayed syndrome, high dose",High - Insidiously progressive over 3-6 months.
same,Incidence,"[6]; delayed syndrome, moderate dose 10-1000 mg/m^2, depending on net dose",Moderate - 1.9-19.5% depending on net dose.
same,Radiographic findings: leukoencephalopathy,"[6]; delayed syndrome, moderate dose, depending on dose","Moderate - Leukoencephalopathy in 15-75%,"
same,Permanent sequelae: asymptomatic,[6]; [11],asymptomatic in 63-74%.
same,Permanent sequelae: neuropsychologic impairment,[6]; [11],"neuropsychologic impairment 15%,"
same,Permanent sequelae: recurrent seizures,[6]; [11],"Moderate - Recurrent seizures 7-26%,"
same,"Typical duration of symptoms, mean",[6]; subacute syndrome,Mean 38 hours.
same,mean duration of symptoms,[6]; subacute syndrome,approximately 40 hours
"Cc1c(-c2ccccc2)oc2ccc(OCCCCCCN3CCC(O)CC3)cc2c1=O [NPC 16377, 6-[6-(4-hydroxypiperidinyl)hexyloxy]-3-methylflavone]",Other known affinity,[2],No
COc1cccc2c1CCC(=O)N2CCCN1CCN(c2cccc(Cl)c2)CC1 [OPC-14523],Ki,[1]; [10],< 50 nM
same,Other known affinity,[2],"Sigma-2, 5HT1AR"
"C[C@]12CC[C@H](OS(=O)(=O)O)CC1=CC[C@@H]1[C@@H]2CC[C@]2(C)C(=O)CC[C@@H]12 [PB-008, dihydroepiandrosterone sulphate]",Ki,[1]; [10],500 to 10000 nM
COc1ccc(N2C[C@H](CN3CCC(O)(c4ccc5c(c4)OCO5)CC3)OC2=O)cc1 [Panamesin],Ki,[1]; [8],< 50 nM
O=C(OCCOCCN1CCCCC1)N1c2ccccc2Sc2cccnc21 [Pipazethate],Ki,[1]; [9],< 50 nM
same,IC50,[5],190 nM
CC(=O)C1CCC2C3CC=C4CC(OS(=O)(=O)O)CCC4(C)C3CCC12C (centres unmarked) [Pregnenolone sulphate],Ki,[1]; [10],500 to 10000 nM
"c1ccc(CN2CCN(Cc3ccc4ccccc4c3)CC2)cc1 [S-21378, 2[(4-benzylpiperazin-1-yl)mothyl] naphthalene, dichiorydrate]",Ki,[1]; [9],< 50 nM
same,Other known affinity,[2],No
"COc1ccc(CCN2CCN(CCCc3ccccc3)CC2)cc1OC.Cl [SA4503, 1-(3,4-dimethoxyphenethyl)-4-(3-phenylpropyl) piperazine HCl]",Other known affinity,[2],No
CCN(C/C=C\c1ccc(C2CCCCC2)c(Cl)c1)C1CCCCC1.Cl [SR-31747A],Ki,[1]; [9],< 50 nM
same,Other known affinity,[2],C8-C7 sterol isomerase
CN1CC[C@@]23CCCC[C@@H]2[C@@H]1Cc1ccc(O)cc13 [dextrorphan],Ki,[1]; read-out: sigma-1 affinity Ki,144 nM and 140 nM
same,side-effects,[7],unacceptable PCP-like side-effects
same,Ki,[4],4000 to 11000 nM
